Patent publication US20180338918A1, “TEMSIROLIMUS LIPOSOME AND PREPARATION METHOD THEREOF” (JIANGSU TASLY DIYI PHARMACEUTICAL CO., LTD., priority 2017, published 2018)

Tests used:
[1] = Sulfobutyl ether-β-cyclodextrin inclusion of temsirolimus, appearance of the solution; assay type: physicochemical; conditions: 1 mg/mL temsirolimus; application amount of sulfobutyl ether-β-cyclodextrin 50%
Experimental: The druggabilities of sulfobutyl ether-β-cyclodextrin inclusion complex, liposome, and fat emulsion were investigated. The drug loading was fixed at 1 mg/ml for parallel comparisons. The main study protocol and results were summarized as follows:
Formula amount of sulfobutyl ether-β-cyclodextrin was weighed, and dissolved by adding quantum satis water for injection, and setting the volume thereof to 100 mL; formula amount of temsirolimus was weighed, added into the aqueous solution of sulfobutyl ether-β-cyclodextrin, and stirred them at room temperature for 2 h.
Formula amount of sulfobutyl ether-β-cyclodextrin was weighed, dissolved by adding quantum satis water for injection to give an aqueous phase; formula amounts of temsirolimus and organic vehicle (anhydrous ethanol, or propanediol, or PEG4000) were weighed, dissolved by water-bath ultrasound to give an organic phase; the organic phase was poured into the aqueous phase with stirring, and mixed uniformly, and setting the volume thereof to full volume with water for injection, and thus the formulations were obtained.

[2] = Solubility of temsirolimus in common oils for injection (medium chain oil, soybean oil); assay type: physicochemical; conditions: for Dissolution state: 30 min
Source text: Investigation of the solubility of temsirolimus in common oils for injection (medium chain oil, soybean oil)

[3] = background statement; cited from earlier work
mice = conditions: injected via tail vein of mice, compared with Tween 80; cited from earlier work

| Inclusion of temsirolimus by sulfobutyl ether-β-cyclodextrin [1] | Dissolution state ([2]; Medium chain oil, 10 mg/g, 60° C.) | Dissolution state ([2]; Medium chain oil, 10 mg/g, 70° C.) | Dissolution state ([2]; Medium chain oil, 10 mg/g, 80° C.) | Dissolution state ([2]; Medium chain oil, 20 mg/g, 60° C.) | Dissolution state ([2]; Medium chain oil, 20 mg/g, 70° C.) | Dissolution state ([2]; Medium chain oil, 20 mg/g, 80° C.) | Dissolution state ([2]; Medium chain oil, 30 mg/g, 60° C.) | Dissolution state ([2]; Medium chain oil, 30 mg/g, 70° C.) | Dissolution state ([2]; Medium chain oil, 30 mg/g, 80° C.) | Dissolution state ([2]; Medium chain oil, 40 mg/g, 60° C.) | Dissolution state ([2]; Medium chain oil, 40 mg/g, 70° C.) | Dissolution state ([2]; Medium chain oil, 40 mg/g, 80° C.) | Dissolution state ([2]; Soybean oil, 10 mg/g, 60° C.) | Dissolution state ([2]; Soybean oil, 10 mg/g, 70° C.) | Dissolution state ([2]; Soybean oil, 10 mg/g, 80° C.) | Solubilities in the medium chain oil and soybean oil ([2]; summary in words) | Molecule | Solubility in water [3] | Acute toxicity (mice) |
| --- | --- | --- | --- | --- | --- | --- | --- | --- | --- | --- | --- | --- | --- | --- | --- | --- | --- | --- | --- |
| cannot be included | Severe | Severe | Severe | Severe | Severe | Severe | Severe | Severe | Severe | Severe | Severe | Severe | Severe | Severe | Severe | poor | CO[C@H]1C[C@@H]2CC[C@@H](C)[C@@](O)(O2)C(=O)C(=O)N2CCCC[C@H]2C(=O)O[C@H]([C@H](C)C[C@@H]2CC[C@@H](OC(=O)C(C)(CO)CO)[C@H](OC)C2)CC(=O)[C@H](C)/C=C(\C)[C@@H](O)[C@@H](OC)C(=O)[C@H](C)C[C@H](C)/C=C/C=C/C=C/1C [temsirolimus, 42-bis(hydroxymethyl) propionate of sirolimus] | almost insoluble in water | – |
| – | – | – | – | – | – | – | – | – | – | – | – | – | – | – | – | – | polyethylene glycol stearate 15 | – | great, even greater than that of Tween 80 |
